Measured values from patent publication US8987424B2, “CA6 antigen-specific cytotoxic conjugate and methods of using the same” (ImmunoGen, Inc., priority 2003, dated 2015).
“Also recorded” adds a separate entry of the source.

Tests used:
[1] = mice, single intravenous dose of 12.5 μg/kg; cited from earlier work
KB cells [2] = assay: Clonogenic assay; assay type: cell-based; conditions: Homo sapiens, 72 h exposure to free maytansine
Protocol: (§1) The cytotoxicity of maytansinoid conjugated muDS6 antibody was examined using 2 different assay formats in various DS6 positive cell lines. Clonogenic assays were conducted where cells (1000-2500 cells/well) were plated on 6-well plates in 2 ml of conjugate diluted in culture media. […] The wells were washed with PBS and the colonies were stained with a 1% w/v crystal violet/10% v/v formaldehyde/PBS solution. Unbound stain was then washed thoroughly from the wells with distilled water, and the plates were allowed to dry. The colonies were counted using a Leica StereoZoom 4 dissecting microscope.
(§2) Plating efficiency (PE) was calculated as the number of colonies/number of cells plated. Surviving fraction was calculated as PE of treated cells/PE of non-treated cells. The IC50 concentration was determined by graphing the surviving fraction of cells vs. the molar concentration of the conjugate.

T-47D cells = assay: Clonogenic assay; assay type: cell-based; conditions: Homo sapiens, T47D, 72 h exposure to free maytansine
Protocol: as §1, §2

TOV-21G cells = assay: Clonogenic assay; assay type: cell-based; conditions: Homo sapiens, TOV21G, 72 h exposure to free maytansine
Protocol: as §1, §2

WISH cells [3] = assay: Clonogenic assay; assay type: cell-based; conditions: Homo sapiens, 72 h exposure to free maytansine
Protocol: as §1, §2

ZR-75-1 cells = assay: Clonogenic assay; assay type: cell-based; conditions: Homo sapiens, 72 h exposure to free maytansine
Protocol: as §1, §2

HPAC cells = assay: Clonogenic assay; assay type: cell-based; conditions: Homo sapiens, 72 h exposure to free maytansine
Protocol: as §1, §2

Hs766T cells = assay: Clonogenic assay; assay type: cell-based; conditions: Homo sapiens, 72 h exposure to free maytansine
Protocol: as §1, §2

Caov-3 cells = assay: Clonogenic assay; assay type: cell-based; conditions: Homo sapiens, 72 h exposure to free maytansine
Protocol: as §1, §2

HPAF-II cells = assay: Clonogenic assay; assay type: cell-based; conditions: Homo sapiens, 72 h exposure to free maytansine
Protocol: as §1, §2

BT-20 cells = assay: Clonogenic assay; assay type: cell-based; conditions: Homo sapiens, 72 h exposure to free maytansine
Protocol: as §1, §2

Caov-4 cells = assay: Clonogenic assay; assay type: cell-based; conditions: Homo sapiens, 72 h exposure to free maytansine
Protocol: as §1, §2

BT-483 cells = assay: Clonogenic assay; assay type: cell-based; conditions: Homo sapiens, 72 h exposure to free maytansine
Protocol: as §1, §2

HeLa cells [4] = assay: Clonogenic assay; assay type: cell-based, human
Protocol: as §1, §2

OVCAR5 cells = assay: Clonogenic assay; assay type: cell-based, human
Protocol: as §1, §2

[5] = clinical trial patients; cited from earlier work
HeLa cells [6] = assay: Flow cytometry binding assay; design: species or system human; conditions: HeLa cells, versus muDS6 antibody
Protocol: (§3) Cells were maintained in a 37° C., 5% CO2 humidified incubator.
(§4) Cells ([…]) were incubated, on ice for 3-4 h, with serially diluted concentrations of the DS6 antibody prepared in FACS buffer (2% goat serum, RPMI) into 96-well plates. The cells were spun down in a table top centrifuge at 1500 rpm for 5 min at 4° C. After removing the media, the wells were then refilled with 150 μl of FACS buffer. The wash step was then repeated. FITC-labeled goat anti-mouse IgG (Jackson Immunoresearch) was diluted 1:100 to FACS buffer and incubated with the cells for 1 h on ice. The plate was covered in foil to prevent photobleaching of the signal. After two washes, the cells were fixed with 1% formaldehyde and analyzed on a flow cytometer.

WISH cells [7] = assay: MTT cell viability assay; assay type: cell-based, human
Protocol: In the MTT assay, cells were seeded in 96-well plates at a density of 1000-5000 cells/well. The cells were plated with serial dilutions of either naked muDS6 or muDS6-DM1 immunoconjugate in 200 μl of culture media. The samples were run in triplicate. The cells and antibody/conjugate mixtures were then incubated for 2-7 d, at which time cell viability was assessed by an MTT ([3(4,5-dimethylthiazol-2-yl)-2,5-diphenyl tetrazolium bromide)] assay. MTT (50 μg/well) was added to the culture supernatant and allowed to incubate for 3-4 h at 37° C. The media was removed and the MTT formazan was solubilized in DMSO (175 μl/well). The absorbance at 540-545 nm was measured. […] The wells with the highest concentrations of conjugate contained no viable cells as compared to naked antibody which had no effect (FIGS. 21 and 24).
(§5) The binding was conducted essentially as described for FIG. 20 except that KB cells were used rather than CaOv-3 cells.

HPAC xenografts = assay: HPAC pancreatic cancer model with humanized DS6 conjugate; assay type: in vivo, mice
Protocol: The in vivo activity of huDS6v1.01-DM4 was tested on the HPAC pancreatic model. HPAC cells were inoculated on day 0, and immunoconjugate treatments were given on day 13. PBS control animals were euthanized once tumor volumes exceeded 1000 mm^3. The conjugate was given at a dose of either 200 μg/kg or 600 μg/kg DM4, corresponding to an antibody concentration 15 mg/kg and 45 mg/kg, respectively. Tumor volume (FIG. 30A) and body weight (FIG. 30B) of the mice were monitored during the course of the study.

KB cells [8] = assay: Flow cytometry binding assay; design: species or system human; conditions: KB cells, versus unmodified antibody
Protocol: as §3, §4
The affinity of the purified huIgG was compared with muDS6 by flow cytometry. In the first set of experiments direct binding to a CA6-expressing cell line, KB, was measured. […] To confirm that the huDS6 versions retain the affinity of muDS6, competitive binding experiments were conducted. The advantage of this format is that the same detection system is used for both murine and human antibodies; that is biotin-muDS6/streptavidin-DTAF.
as §5

Q: With COc1c(O)c2c(c3cc(C(=O)N4CCc5c4c(O)c(OC)c4[nH]c(C(=O)N6CC7CC78C6=CC(=O)c6[nH]cc(C)c68)cc54)[nH]c13)CCN2C(N)=O (centres unmarked) [CC-1065] as the molecule, how does the “day of mortality from delayed hepatotoxicity” value [1] read?
A: 50 days

Q: Which results are given for COc1cc2cc(c1Cl)N(C)C(=O)C[C@H](OC(=O)[C@H](C)N(C)C(C)=O)[C@]1(C)O[C@H]1[C@H](C)[C@@H]1C[C@@](O)(NC(=O)O1)[C@H](OC)/C=C/C=C(\C)C2 [Maytansine, maytansine]?
A: IC50 (KB cells [2]): 0.03 nM; IC50 (T-47D cells): 0.12 nM; IC50 (TOV-21G cells): 0.048 nM; IC50 (WISH cells [3]): 0.09 nM; IC50 (ZR-75-1 cells): 0.1 nM; IC50 (HPAC cells): 0.055 nM; IC50 (Hs766T cells): > 3 nM; IC50 (Caov-3 cells): 0.032 nM; IC50 (HPAF-II cells): 0.6 nM; IC50 (BT-20 cells): 0.35 nM; IC50 (Caov-4 cells): 0.6 nM; IC50 (BT-483 cells): 0.15 nM; fold less maytansine sensitive (HeLa cells [4]; HeLa versus TOV-21G and HPAC): 2-7 fold; IC50 (HeLa cells [4]; Homo sapiens, HeLa, 72 h exposure to free maytansine): 0.1 nM; IC50 (OVCAR5 cells; Homo sapiens, OVCAR-5, OVCAR5, 72 h exposure to free maytansine): 0.32 nM; fold less maytansine sensitive (OVCAR5 cells; OVCAR5 versus TOV-21G and HPAC): 2-7 fold

B1: cantuzumab mertansine: huC242-DM1 antibody-maytansinoid conjugate tested in a clinical trial (conjugate, chains of the INN, looked up)
VH: QVQLVQSGAEVKKPGETVKISCKASDYTFTYYGMNWVKQAPGQGLKWMGWIDTTTGEPTYAQKFQGRIAFSLETSASTAYLQIKSLKSEDTATYFCARRGPYNWYFDVWGQGTTVTVSS
VL: DIVMTQSPLSVPVTPGEPVSISCRSSKSLLHSNGNTYLYWFLQRPGQSPQLLIYRMSNLVSGVPDRFSGSGSGTAFTLRISRVEAEDVGVYYCLQHLEYPFTFGPGTKLELK
modifications: DM1 maytansinoid conjugate
notes: huC242-DM1 antibody-maytansinoid conjugate tested in a clinical trial
Q: Which “correlation of pretreatment shed CanAg levels with pharmacokinetics of antibody clearance” value [5] does the source give for B1 here?
A: no correlation

B2: DS6-MM1-202 (conjugate)
VH: QAYLQQSGAELVRSGASVKMSCKASGYTFTSYNMHWVKQTPGQGLEWIGYIYPGNGATNYNQKFKGKATLTADPSSSTAYMQISSLTSEDSAVYFCARGDSVPFAYWGQGTLVTVSA
VL: QIVLTQSPAIMSASPGEKVTITCSAHSSVSFMHWFQQKPGTSPKLWIYSTSSLASGVPARFGGSGSGTSYSLTISRMEAEDAATYYCQQRSSFPLTFGAGTKLELKR
Q: With B2 as the molecule, how does the “effect of conjugation on binding activity” value (HeLa cells [6]) read?
A: retains binding activity

B3: huDS6v1.01: humanized (resurfaced) DS6 version 1.01, heavy chain with the human 28E4 T73 (antibody, V domains shown)
VH: QAQLVQSGAEVVKPGASVKMSCKASGYTFTSYNMHWVKQTPGQGLEWIGYIYPGNGATNYNQKFQGKATLTADTSSSTAYMQISSLTSEDSAVYFCARGDSVPFAYWGQGTLVTVSA
VL: EIVLTQSPATMSASPGERVTITCSAHSSVSFMHWFQQKPGTSPKLWIYSTSSLASGVPARFGGSGSGTSYSLTISSMEAEDAATYYCQQRSSFPLTFGAGTKLELKR
Q: With B3 as the molecule, how does the “cytotoxic activity of unconjugated antibody” value (WISH cells [7]) read?
A: no cytotoxic activity

B4: huDS6v1.01-DM4 (conjugate)
VH: QAQLVQSGAEVVKPGASVKMSCKASGYTFTSYNMHWVKQTPGQGLEWIGYIYPGNGATNYNQKFQGKATLTADTSSSTAYMQISSLTSEDSAVYFCARGDSVPFAYWGQGTLVTVSA
VL: EIVLTQSPATMSASPGERVTITCSAHSSVSFMHWFQQKPGTSPKLWIYSTSSLASGVPARFGGSGSGTSYSLTISSMEAEDAATYYCQQRSSFPLTFGAGTKLELKR
Q: Which “toxicity / body weight” value (HPAC xenografts; 200 μg/kg DM4) does the source give for B4 here?
A: lack of body weight loss; also recorded: not toxic

Q: And the anti-tumor activity (HPAC xenografts; 200 μg/kg DM4, treatment on day 13)?
A: all mice achieving complete tumor regression; also recorded: potent anti-tumor activity

Q: What about the “effect of conjugation on affinity/avidity” value (KB cells [8]) of the same molecule?
A: essentially no loss of affinity; also recorded: little effect on the avidity
